Reference: article PMC9145865, “Effects of Rare Phytocannabinoids on the Endocannabinoid System of Human Keratinocytes” (International Journal of Molecular Sciences, 2022)

Columns and labels:
HaCaT cells = assay: MTT cytotoxicity assay; assay type: cell-based, human; settings: for relative toxicity on HaCaT cells: 6-24 h; for IC50: Homo sapiens, HaCaT cell viability
Experimental: Immortalized HaCaT cells from the original depositor (DKFZ, Heidelberg) were purchased from CLS-Cell Lines Service (code 300493) and were of […] skin type (phototype). In all experiments, the HaCaT cells were cultured at 37 °C in a humidified 5% CO2 atmosphere in high-glucose Dulbecco’s Modified Eagle Medium (DMEM-HG), which was supplemented with 10% fetal bovine serum, and were used at the 5th–6th passage. Specific pCBs (CBG, CBC, THCV and CBGA) were used to treat the HaCaT cells at different time points (6 h, 12 h and 24 h) and at different concentrations (0.5 µM, 1.0 µM, 2.5 µM, 5.0 µM, 10 µM and 25 µM). Various doses of these pCBs were added directly to culture medium (with 1% fetal bovine serum) and the vehicles alone were added to controls, as follows: 0.8% methanol for CBG and CBC; 0.6% methanol for THCV; 0.6% acetonitrile for CBGA.
The HaCaT cells were seeded into 96-well plates at a density of 1 × 10^4 per well, incubated overnight and then treated with the selected pCBs at different concentrations (0.5 μM, 1.0 μM, 2.5 μM, 5.0 μM, 10 μM and 25 μM) for 6 h, 12 h and 24 h. Cell viability was assessed using a mitochondrial-dependent reduction of 3-[4,5-dimethylthiazol-2-yl]-2,5-diphenyl tetrazolium bromide (MTT) to purple formazan. After 4 h, the MTT solution was discarded and dimethyl sulfoxide (DMSO) was added to dissolve the formazan crystals. The cell viability was calculated by subtracting the 630 nm OD background from the 570 nm OD total signal of the cell-free blank of each sample and was expressed as percentage of the control (100%).

GPR55 = assay: qRT-PCR gene expression of GPR55; assay type: cell-based, human; settings: HaCaT cells, half-IC50 dose, 24 h, vs. control
Experimental: The HaCaT cells were seeded into 6-well plates at a density of 4 × 10^4 per well, incubated overnight and then treated with the selected pCBs (CBG (6.0 µM), CBC (4.0 µM), THCV (9.0 µM) and CBGA (13.0 µM)) for 24 h. The cell pellets were collected and RT-PCR reactions were performed using the RevertAid H Minus First Strand cDNA Synthesis Kit. The relative abundance was assessed via RT quantitative PCR (RT-qPCR) using the SensiFAST SYBR Lo-ROX Kit in an Applied Biosystems 7500 Fast Real-Time PCR System (Life Technologies). To provide the precise quantification of the initial target in each PCR reaction, the amplification plot was examined, as well as the point of early log phase of the product accumulation, which was defined by assigning a fluorescence threshold above the background that was defined as the threshold cycle number or “Ct. Differences” in threshold cycle number that was used to quantify the relative amount of the PCR targets that were contained within each tube. After PCR, a dissociation curve (melting curve) was constructed in the range of 60 °C to 95 °C [62] to evaluate the specificity of the amplification products. The relative expression of the different amplicons was calculated using the delta–delta Ct (ΔΔCt) method and then converted into the relative expression ratio (2^−ΔΔCt) for statistical analysis. All data were normalized to the endogenous reference genes β-actin and glyceraldehyde-3-phosphate dehydrogenase. The specific primers (Table 5) that were used were designed and ordered from Integrated DNA Technologies (IDT; Coralville, IA, USA) with the following sequences: […]

TRPV1 = TRPV1 calcium assay (capsaicin-triggered intracellular Ca2+ release); assay type: cell-based, human; settings: HaCaT cells, half-IC50 amount, 24 h; capsaicin 1 µM; vs. control
Experimental: The effects of the pCBs on intracellular Ca^2+ release that was induced by TRPV1 activation was determined using the selective intracellular fluorescent probe Fluo-3 AM (Molecular probes, Eugene, OR, USA). The HaCaT cells (1 × 10^6 cells) were loaded for 15 min at 25 °C with 4 µM of Fluo-3 AM, which contained 0.02% Pluronic F-127 (Molecular probes) in an OPTIMEM medium, and then they were washed in the Tyrode’s buffer (145 mM of NaCl, 2.5 mM of KCl, 1.5 mM of CaCl2, 1.2 mM of MgCl2, 10 mM of D-glucose and 10 mM of HEPES; pH 7.4), resuspended in 2 mL of the Tyrode’s buffer and transferred into the quartz cuvette of the LS50B spectrofluorometer (Perkin Elmer, Waltham, MA, USA). Fluorescence was measured at 25 °C (excitation at λ = 488 nm; emission at λ = 516 nm) from the HaCaT cells, which had been pre-incubated with each pCB (6.0 µM of CBG, 4.0 of µM CBC, 9.0 µM of THCV and 13.0 µM of CBGA) and then stimulated with the selective TRPV1 agonist capsaicin (1 µM), as reported in [64]. The TRPV1-mediated intracellular Ca^2+ elevation was expressed as fluorescence intensity (arbitrary units, AU) per 10^6 cells.

FAAH = FAAH activity assay in membranes of treated cells; assay type: cell-based, human; settings: HaCaT cells, half-IC50 amount, 24 h, vs. control
Experimental: FAAH Assay: The HaCaT cells were seeded into 6-well plates at a density of 4 × 10^4 per well, incubated overnight and then treated with the selected pCBs (6.0 µM of CBG, 4.0 µM of CBC, 9.0 µM of THCV and 13.0 µM of CBGA) for 24 h. The cell pellets were collected and FAAH activity was determined using membranes that were isolated from these cells. Briefly, the membranes were incubated at pH 7.4 with 10 μM of [^3H]AEA and 50 mM of Tris–HCl, 0.05% BSA at 37 °C in water bath for 30 min. The reaction was blocked with 1 mL of chloroform–methanol (1:1 v/v) and centrifuged at 3000 rpm for 10 min at 4 °C. The aqueous (top) layer was collected and transferred into scintillation vials. The amount of [^3H]ethanolamine that was released was expressed as pmol per min per mg of protein, as reported in [67].

human TRPV1 = tested on: human TRPV1; set-up: method as in PMID 21175579; settings: over-expressed by HEK-293 cells; ref [41]; cited from earlier work

| Structure (SMILES) | relative toxicity on HaCaT cells (HaCaT cells) | IC50 (HaCaT cells; 6 h) | IC50 (HaCaT cells; 12 h) | IC50 (HaCaT cells; 24 h) | Gene Expression GPR55 (GPR55) | gene expression of GPR55 (in words) (GPR55) | TRPV1 channel stimulation (intracellular Ca2+ release triggered by capsaicin) (TRPV1) | activity of FAAH (FAAH) | effectiveness in human TRPV1 (human TRPV1) |
| --- | --- | --- | --- | --- | --- | --- | --- | --- | --- |
| CCCc1cc(O)c2c(c1)OC(C)(C)[C@@H]1CCC(C)=C[C@@H]21 [THCV, Δ^9-tetrahydrocannabivarin] | least toxic | 14.3 µM | 22.4 µM | 18.6 µM | ↑++++ | significant increase | significantly increased | significantly increased | high effectiveness |
| CCCCCc1cc(O)c(C/C=C(\C)CCC=C(C)C)c(O)c1C(=O)O [CBGA, cannabigerolic acid] | least toxic | > 25 µM | 24.5 µM | > 25 µM | GPR55 ↑+++ | significant increase | significantly increased | significantly increased | – |
| CCCCCc1cc(O)c2c(c1)OC(C)(CCC=C(C)C)C=C2 (stereo not shown) [CBC, cannabichromene] | – | 15.3 µM | 15.6 µM | 8.2 µM | ↓++++ | reduced | significantly increased | significantly increased | to a lesser extent |
| CCCCCc1cc(O)c(C/C=C(\C)CCC=C(C)C)c(O)c1 [CBG, cannabigerol] | – | 13.5 µM | 13 µM | 11.7 µM | – | – | significantly increased | significantly increased | high effectiveness |
